Source: ChEMBL document CHEMBL4421730, “Synthetic compounds and derivatives as modulators of smoking or nicotine ingestion and lung cancer” (2013)
Active and inactive are the calls of the source. No cut-off for these calls is given here.

Columns and labels:
Cytochrome P450 2A6 [1] = biological target: T1, Cytochrome P450 2A6 (Homo sapiens, UniProt P11509); assay: Binding affinity to synthetic N-terminal truncated CYP2A6 (unknown origin) assessed as occurrence of type-1 binding by spectral interaction analysis
T1 sequence (P11509 whole entry): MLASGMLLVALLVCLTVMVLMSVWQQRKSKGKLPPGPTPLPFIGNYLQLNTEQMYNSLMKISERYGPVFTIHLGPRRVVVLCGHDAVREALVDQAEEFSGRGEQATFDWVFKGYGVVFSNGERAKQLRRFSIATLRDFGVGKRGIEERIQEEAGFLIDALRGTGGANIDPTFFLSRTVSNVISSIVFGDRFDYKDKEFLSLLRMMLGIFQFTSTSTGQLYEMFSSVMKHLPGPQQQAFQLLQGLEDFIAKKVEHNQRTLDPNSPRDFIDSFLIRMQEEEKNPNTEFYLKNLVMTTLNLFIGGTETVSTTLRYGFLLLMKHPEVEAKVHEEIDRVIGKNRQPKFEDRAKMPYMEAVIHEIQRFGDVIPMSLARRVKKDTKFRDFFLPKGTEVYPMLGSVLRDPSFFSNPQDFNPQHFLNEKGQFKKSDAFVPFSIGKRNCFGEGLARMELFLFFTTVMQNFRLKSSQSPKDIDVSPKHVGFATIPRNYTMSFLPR

[2] = biological target: Acetylcholine-binding protein (Lymnaea stagnalis) (UniProt P58154); assay: Binding affinity to Lymnaea stagnalis nicotinic acetylcholine receptor by fluorescence based assay; type: single protein
[3] = biological target: Acetylcholine-binding protein (Lymnaea stagnalis) (UniProt P58154); assay: Displacement of [125I]bungarotoxin from Lymnaea stagnalis nicotinic acetylcholine receptor assessed as residual radioligand binding relative to control
Rattus norvegicus [4] = assay: Reduction of nicotine self-administration in nicotine-addicted Wistar rat at 16 mg/kg dosed on day 50 following self-administration of nicotine across 23 hrs period each day for 49 days and measured on day 51 and 52 relative to control; type: ADME, organism-based; conditions: in vivo
CYP2A6 [5] = biological target: T2, CYP2A6 (Homo sapiens, UniProt P11509); assay: (§1) Binding affinity to synthetic N-terminal truncated CYP2A6 (unknown origin) assessed as effect on type-1 spectral shift lambda(min) by measuring displacement of coumarin at 100 uM preincubated with […] coumarin by spectral interaction analysis; conditions: synthetic N-terminal truncated CYP2A6, probe coumarin, […]
T2 sequence (P11509 whole entry): T1 sequence (P11509 whole entry)

CYP2A6 [6] = biological target: T2, CYP2A6; assay: (§2) Binding affinity to synthetic N-terminal truncated CYP2A6 (unknown origin) assessed as effect on type-1 spectral shift lambda(max) by measuring displacement of coumarin at 100 uM preincubated with […] coumarin by spectral interaction analysis; conditions: synthetic N-terminal truncated CYP2A6, probe coumarin, […]
Rattus norvegicus [7] = assay: Reduction of nicotine self-administration in nicotine-addicted Wistar rat at 15 mg/kg dosed on day 50 following self-administration of nicotine across 23 hrs period each day for 49 days relative to control; type: ADME, organism-based; set-up: scale not given: the % may be the effect or the level left; conditions: in vivo
Rattus norvegicus [8] = assay: Reduction of nicotine self-administration in nicotine-addicted Wistar rat at 15 mg/kg dosed on day 50 following self-administration of nicotine across 23 hrs period each day for 49 days and measured on day 51 and 52 relative to control; type: ADME, organism-based; conditions: in vivo
Cytochrome P450 2A6 [9] = biological target: T1, Cytochrome P450 2A6; assay: as §1; conditions: 100 µM
Cytochrome P450 2A6 [10] = biological target: T1, Cytochrome P450 2A6; assay: as §2; conditions: 100 µM
Cytochrome P450 2A6 [11] = biological target: T1, Cytochrome P450 2A6; assay: Inhibition of human CYP2A6 expressed in insect cell membranes assessed as reduction in enzyme-mediated coumarin 7-hydroxylation at 400 uM in presence of glucose-6-phosphate, glucose-6-phosphate dehydrogenase and NADPH-generating system by fluorometry

Acetylcholine-binding protein (Lymnaea stagnalis), sequence (P58154 whole entry): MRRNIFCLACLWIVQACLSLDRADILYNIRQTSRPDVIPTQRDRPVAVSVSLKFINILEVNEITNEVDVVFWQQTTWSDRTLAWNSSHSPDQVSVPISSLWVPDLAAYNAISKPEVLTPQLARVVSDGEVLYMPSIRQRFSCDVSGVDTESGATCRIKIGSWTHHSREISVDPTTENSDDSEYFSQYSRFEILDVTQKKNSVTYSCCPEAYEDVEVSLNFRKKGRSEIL

| SMILES | Activity (Cytochrome P450 2A6 [1]) | Activity [2] | further results |
| --- | --- | --- | --- |
| CN(C)CC#Cc1cccnc1 | Not Active |  |  |
| NCC1CCC(c2cccnc2)O1 (mixture of isomers) |  | Active | Activity [3]: 30% |
| Cl.Cl.NCc1ccc(-c2cccnc2)o1 |  |  | Activity (Rattus norvegicus [4]): Toxic |
| SCc1ccc(-c2cccnc2)o1 | Not Active |  | inhibition at 100 µM (CYP2A6 [5]): 100%; inhibition at 100 µM (CYP2A6 [6]): 100% |
| OCC1CCC(c2cccnc2)O1 (configuration not stated) |  | inactive |  |
| N[C@@H]1C[C@H]1c1ccccc1.N[C@H]1C[C@@H]1c1ccccc1 |  | Active |  |
| Cl.Cl.c1cncc(-c2c[nH]cn2)c1 |  | inactive | Activity (Rattus norvegicus [7]): 40%; Activity (Rattus norvegicus [8]): Toxic |
| Cc1cscc1-c1cccnc1 |  | Active |  |
| CC(=O)SCc1ccc(-c2cccnc2)o1 | Not Active |  | Activity (Cytochrome P450 2A6 [9]): Not Active; Activity (Cytochrome P450 2A6 [10]): Not Active |
| c1cncc(-c2cccs2)c1 |  | Active |  |
| BrCC1CCC(c2cccnc2)O1 (configuration not stated) |  | Active |  |
| Cc1ccsc1-c1cccnc1 | Active |  |  |
| Cc1ccsc1-c1ccc(F)nc1 | Active |  |  |
| c1cncc(-c2cccnc2)c1 |  | Active |  |
| NC[C@@H]1CC[C@@H](c2cccnc2)O1 (relative stereo) |  | Active | Activity [3]: 25% |
| CCC1CCC(c2cccnc2)O1 (configuration not stated) |  | inactive |  |
| Cc1cn(-c2cccnc2)cn1 |  | Active |  |
| Cc1csc(-c2cccnc2)n1 | Active |  |  |
| O=Cc1ccc(-c2cccnc2)o1 | Not Active |  | inhibition at 100 µM (CYP2A6 [5]): 100%; inhibition at 100 µM (CYP2A6 [6]): 100% |
| c1cncc(-n2cnnn2)c1 |  |  | inhibition (INH) (Cytochrome P450 2A6 [11]): Active |
| Cc1cscc1-c1ccccc1 | Active |  |  |
| c1ccc(-c2ccsc2)cc1 | Active |  |  |
